From patent US20060008864A1, “Methods to measure compound specificity” (priority 2004, published 2006)
Counter-ions that a name gives are not always drawn. Like-named read-outs stand apart in the source and are kept apart here.

What was measured:
[1] = tested on: MCF-7 CCT (cancer cell tubulin); assay: Fluorescence (DAPI) tubulin polymerization microassay, MCF-7 cancer cell tubulin; settings: BBT EC50 divided by MCF-7 CCT EC50
Protocol: Compounds were assayed in the standard glycerol containing (vinblastine and colchicine) or no glycerol containing (paclitaxel) formats. […] Twenty four micrograms of CCT in G-PEM with 10 uM DAPI plus glycerol (colchicine and vinblastine) or minus glycerol (paclitaxel) at 4° C. was pipetted into wells of the 384-well plate which contained 1.3 ul of 10× strength compound concentration and incubated at 37° C. Tubulin polymerization was detected by measuring the fluorescence of the solution (Ex 360 nm, Em 405 nm) over time. Each set of data, A through I, represents six duplicate polymerization assays from one experiment, the duplicates contain either a 20% glycerol control or one of five compound concentrations (0.1, 0.3, 1.0, 3.0 or 10 uM). Paclitaxel experiments were repeated n=3 for neuronal, n=5 for HeLa and n=2 for MCF-7. Vinblastine experiments were repeated n=2 for neuronal, n=5 for HeLa and n=2 for MCF-7. Colchicine experiments were repeated n=2 for neuronal, HeLa and MCF-7. […]
Using the conditions described in FIG. 9, we measured eleven taxol analogs against BBT and MCF-7 CCT. TLI's were calculated by the method described in FIG. 11. […]
A fluorescent plate reader is tuned to 360 nm excitation wavelength and 405 to 475 nm emission wavelength, a 384 well plate was placed into the machine and it was pre-warmed to 37° C.

[2] = tested on: HeLa CCT (cancer cell tubulin); assay: Fluorescence (DAPI) tubulin polymerization microassay, HeLa cancer cell tubulin; format: biochemical; settings: for Tubulin Ligand Index (TLI) ratio, HeLa: BBT EC50 divided by HeLa CCT EC50; for EC50: 2 mg/ml tubulin, enhancer format without glycerol, 50% of 20% glycerol control Vmax, read-out: EC50 using HeLa CCT
Source text: (§1) A plot of log10 of concentration (X-axis) and Percent Vmax (control) (Y-axis) is made for each compound.

[3] = biological target: Bovine brain tubulin (mainly isotypes βII and βIII); settings: cited from earlier work
[4] = tested on: Bovine brain tubulin (BBT, neuronal tubulin); assay: Fluorescence (DAPI) tubulin polymerization microassay, bovine brain tubulin; format: biochemical; settings: 2 mg/ml tubulin, enhancer format without glycerol; 50% of 20% glycerol control Vmax; read-out: EC50 using neuronal tubulin
Source text: as §1

[5] = tested on: HeLa CCT (cancer cell tubulin); settings: BBT IC50 divided by HeLa CCT IC50; IC50 estimated from 50% intercept of dose response curve; cited from earlier work

Row | Molecule | Tubulin Ligand Index (TLI) ratio, HeLa [2] | EC50 [4] | EC50 [2] | Tubulin Ligand Index (TLI), BBT vs HeLa CCT, measured by Zentaris GmbH [5] | also measured
1 | CC(=O)O[C@@]12CO[C@@H]1C[C@H](O)[C@@]1(C)C(=O)[C@H](O)C3=C(C)[C@@H](O)C[C@@](O)([C@@H](OC(=O)c4ccccc4)[C@H]21)C3(C)C [10-Deacetyl-baccatin-III] | < 0.01 | – | – | – | Tubulin Ligand Index (TLI) ratio, MCF-7 [1]: 0.28
2 | N=C(N)c1ccc(-c2cc3ccc(C(=N)N)cc3[nH]2)cc1 [DAPI, 4′, 6-diamidino-2-phenylindole-HCl] | – | – | – | – | Kd ([3]; bovine brain tubulin in the monomer form, read-out: Kd (affinity constant) for DAPI, monomer form): 43000 nM; Kd ([3]; bovine brain tubulin in the polymer form, read-out: Kd (affinity constant) for DAPI, polymer form): 6000 nM
3 | CC(=O)O[C@@]12CO[C@@H]1C[C@H](O)[C@@]1(C)C(=O)[C@H](O)C3=C(C)[C@@H](OC(=O)[C@H](O)[C@@H](NC(=O)OC(C)(C)C)c4ccccc4)C[C@@](O)([C@@H](OC(=O)c4ccccc4)[C@H]21)C3(C)C [docetaxel] | 0.93 | 140 nM | 150 nM | – | –
4 | CC[C@]1(O)C[C@@H]2CN(CCc3c([nH]c4ccccc34)[C@@](C(=O)OC)(c3cc4c(cc3OC)N(C)[C@H]3[C@@](O)(C(=O)OC)[C@H](OC(C)=O)[C@]5(CC)C=CCN6CC[C@]43[C@@H]65)C2)C1 [vinblastine] | – | – | – | 1.0 | –
5 | Disorazol E1 | – | – | – | 2.0 | –
6 | CC(=O)O[C@H]1C(=O)[C@@]2(C)[C@H]([C@H](OC(=O)c3ccccc3)[C@]3(O)C[C@H](OC(=O)[C@H](O)[C@@H](NC(=O)c4ccccc4)c4ccccc4)C(C)=C1C3(C)C)[C@]1(OC(C)=O)CO[C@@H]1C[C@@H]2O [paclitaxel] | – | 150 nM | 790 nM | – | –
